Measured values as given in patent US11802127B2, “3,4-dihydro-2,7-naphthyridine-1,6(2H,7H)-diones as MEK inhibitors” (Pfizer Inc., priority 2021, dated 2023).

Key:
P-gp (MDR1) = target: T1, P-gp (MDR1) (Homo sapiens, UniProt P08183); assay: Efflux ratio in MDR1 transfected LLC-PK1 cells; type: in vitro ADME; details: pig, Papp(B−A)/Papp(A−B)
T1 construct: expressed in transfected cells; host or cells: LLC-PK1 (porcine kidney) cells transfected with MDR1
Description: (§1) Both LLC-PK1 and MDR1 transfected LLC-PK1 cells were cultured and plated according to manufacturer's recommendations with the exception that the passage media contained only 2% fetal bovine serum to extend passage time out to seven days.
(§2) Both positive and negative controls were used to assess functionality of P-gp or BCRP efflux in the assays. Stock solutions for assay controls and the test article were prepared in DMSO for final test concentrations of 10 and 1 μM, respectively. Final organic concentration in the assay was 1%. All dosing solutions contained 10 μM lucifer yellow to monitor LLC-PK1 or MDCKII cell monolayer integrity.
(§3) For the apical to basolateral determination (A to B), 75 μL of the test article in transport buffer were added to the apical side of the individual transwells and 250 μL of basolateral media, without compound or lucifer yellow, were added to each well. For the basolateral to apical determination (B to A), 250 μL of test article in transport buffer were added to each well and 75 μL transport buffer, without compound or lucifer yellow, were added to each transwell. All tests were performed in triplicate, and each compound was tested for both apical to basolateral and basolateral to apical transport. The plates were incubated for 2 hours on a Lab-Line Instruments Titer Orbital Shaker (VWR, West Chester, PA) at 50 rpm and 37° C. with 5% CO2. All culture plates were removed from the incubator and 50 μL of media were removed from the apical and basolateral portion of each well and added to 150 μL of 1 μM labetalol in 2:1 acetonitrile (acetonitrile): H2O, v/v.
(§4) The plates were read using a Molecular Devices (Sunnyvale, CA) Gemini Fluorometer to evaluate the lucifer yellow concentrations at excitation/emission wavelengths of 425/535 nm. These values were accepted when found to be below 2% for apical to basolateral and 5% basolateral to apical flux across the MDR1-transfected LLC-PK1 or BCRP-transfected MDCKII cell monolayers. The plates were sealed and the contents of each well analyzed by LC-MS/MS. The compound concentrations were determined from the ratio of the peak areas of the compound to the internal standard (labetalol) in comparison to the dosing solution.
(§5) The LC-MS/MS system was comprised of an HTS-PAL autosampler (Leap Technologies, Carrboro, NC), an HP1200 HPLC (Agilent, Palo Alto, CA), and a MDS Sciex 4000 Q Trap system (Applied Biosystems, Foster City, CA). […] The total run time, including re-equilibration, for a single injection was 1.2 minutes. Mass spectrometric detection of the analytes was accomplished using the ion spray positive mode. Analyte responses were measured by multiple reaction monitoring (MRM) of transitions unique to each compound (the protonated precursor ion and selected product ions for each test article and m/z 329 to m/z 162 for labetalol, the internal standard).
An efflux ratio is calculated from the mean apical to basolateral (A−B) Papp data and basolateral to apical (B−A) Papp data: Efflux ratio=Papp(B−A)/Papp(A−B)

[1] = MDR1 LLC-PK1 and BCRP MDCKII Permeability Assay: permeability coefficient (Papp); type: in vitro ADME; details: MDCK, test article 1 μM, 37° C.
Description: as §1
BCRP transfected MDCKII canine P-gp knockout cell line was cultured and plated according to manufacturer's recommendations.
as §2, §3, §4, §5

BCRP (hBCRP) = target: T2, BCRP (hBCRP) (Homo sapiens, UniProt Q9UNQ0); assay: Efflux ratio in BCRP transfected MDCKII canine P-gp knockout cells; type: in vitro ADME; details: Papp(B−A)/Papp(A−B), read-out: Efflux ratio MDCKII-hBCRP knock-in,canine pg-P KO
T2 construct: expressed in transfected cells; host or cells: MDCKII (canine kidney) cells, canine P-gp knockout, transfected with BCRP
T2 sequence (Q9UNQ0 1-655): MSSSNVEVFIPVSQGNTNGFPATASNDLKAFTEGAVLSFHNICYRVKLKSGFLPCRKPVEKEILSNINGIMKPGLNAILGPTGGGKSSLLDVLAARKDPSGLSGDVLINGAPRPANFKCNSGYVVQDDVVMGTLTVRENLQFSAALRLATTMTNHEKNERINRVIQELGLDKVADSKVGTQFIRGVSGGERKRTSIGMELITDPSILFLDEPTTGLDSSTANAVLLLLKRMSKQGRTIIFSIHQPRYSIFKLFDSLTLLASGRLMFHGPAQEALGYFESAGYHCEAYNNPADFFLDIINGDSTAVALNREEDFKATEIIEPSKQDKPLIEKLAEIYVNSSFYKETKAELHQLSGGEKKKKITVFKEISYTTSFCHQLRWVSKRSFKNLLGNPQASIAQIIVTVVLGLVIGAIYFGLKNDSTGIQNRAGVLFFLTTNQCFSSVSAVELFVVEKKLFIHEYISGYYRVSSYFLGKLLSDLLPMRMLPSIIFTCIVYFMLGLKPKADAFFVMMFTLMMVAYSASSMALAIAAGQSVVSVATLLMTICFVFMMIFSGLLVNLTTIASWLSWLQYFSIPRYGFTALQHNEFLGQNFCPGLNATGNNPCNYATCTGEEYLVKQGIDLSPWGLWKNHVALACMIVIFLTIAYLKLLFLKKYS
Summary of the method: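 Test article at 1 μM final (1% organic) in A→B and B→A directions across MDCKII P-gp knockout monolayers expressing BCRP, 2 h at 37° C., triplicate; lucifer yellow checked monolayer integrity. Concentrations by LC-MS/MS against labetalol internal standard; efflux ratio = Papp(B−A)/Papp(A−B).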

[2] = test system: ERK1/2(Thr202/Tyr204) phosphorylation (MEK-dependent) in A375 cells; assay: Cellular Phospho-p44/42 MAPK (Erk1/2) (Thr202/Tyr204) Assay; type: cell-based; details: Homo sapiens, A-375, 1-hour incubation, pERK1/2 (Thr202/Tyr204) In-Cell Western normalized to GAPDH
Summary of the method: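 A375 cells exposed 1 h to 10-point 1:3 dilutions (top 20–1 μM, 0.5% DMSO), then fixed and stained for pERK1/2 (Thr202/Tyr204) by In-Cell Western. Signal normalized to GAPDH per well; DMSO and 1 μM reference inhibitor define 0 and 100% inhibition.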

T1 sequence (P08183 whole entry): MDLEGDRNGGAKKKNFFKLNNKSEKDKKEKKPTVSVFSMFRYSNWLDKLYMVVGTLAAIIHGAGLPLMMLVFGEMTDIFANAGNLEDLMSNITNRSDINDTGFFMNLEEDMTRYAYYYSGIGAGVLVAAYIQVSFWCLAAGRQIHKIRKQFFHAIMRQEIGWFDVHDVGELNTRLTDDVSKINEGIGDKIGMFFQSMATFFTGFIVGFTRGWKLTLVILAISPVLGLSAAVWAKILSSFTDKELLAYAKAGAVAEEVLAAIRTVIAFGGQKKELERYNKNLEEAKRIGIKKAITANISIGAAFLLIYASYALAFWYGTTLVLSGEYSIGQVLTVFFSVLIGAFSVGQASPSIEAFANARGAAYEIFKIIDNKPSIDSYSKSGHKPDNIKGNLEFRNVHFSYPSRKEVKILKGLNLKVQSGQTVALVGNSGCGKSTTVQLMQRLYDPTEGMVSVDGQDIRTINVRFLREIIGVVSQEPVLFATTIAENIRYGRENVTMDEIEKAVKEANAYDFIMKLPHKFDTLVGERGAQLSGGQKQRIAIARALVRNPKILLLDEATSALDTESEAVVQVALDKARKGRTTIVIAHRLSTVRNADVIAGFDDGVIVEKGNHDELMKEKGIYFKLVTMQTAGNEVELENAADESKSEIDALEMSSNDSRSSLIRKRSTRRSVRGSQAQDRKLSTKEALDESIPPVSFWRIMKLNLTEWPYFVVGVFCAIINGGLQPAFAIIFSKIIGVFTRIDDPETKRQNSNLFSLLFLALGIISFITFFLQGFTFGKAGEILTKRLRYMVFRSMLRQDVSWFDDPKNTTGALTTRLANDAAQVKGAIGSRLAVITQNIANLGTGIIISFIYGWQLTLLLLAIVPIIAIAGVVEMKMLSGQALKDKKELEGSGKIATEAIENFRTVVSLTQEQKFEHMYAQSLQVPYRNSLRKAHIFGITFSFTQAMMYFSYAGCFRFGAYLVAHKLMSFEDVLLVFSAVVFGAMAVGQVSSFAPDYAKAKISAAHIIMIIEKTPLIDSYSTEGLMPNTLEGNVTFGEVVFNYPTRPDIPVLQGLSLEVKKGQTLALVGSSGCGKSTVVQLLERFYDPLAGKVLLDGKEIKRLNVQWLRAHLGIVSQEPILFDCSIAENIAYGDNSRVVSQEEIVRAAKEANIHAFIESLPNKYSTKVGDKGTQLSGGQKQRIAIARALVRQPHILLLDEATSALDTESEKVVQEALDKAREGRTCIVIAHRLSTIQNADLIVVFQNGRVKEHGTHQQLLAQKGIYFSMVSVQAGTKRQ

SMILES | efflux ratio at 2 h, 1 μM (P-gp (MDR1)) | Papp at 2 h, 1 μM [1] [×10⁻⁶ cm/s] | efflux ratio at 2 h, 1 μM (BCRP (hBCRP)) | IC50 [2] [µM]
Cc1c2c(c(Nc3ccc(C4CC4)cc3F)n(C)c1=O)C(=O)N(OCCO)CC2 [Example 45, 8-((4-cyclopropyl-2-fluorophenyl)amino)-2-(2-hydroxyethoxy)-5,7-dimethyl-3,4-dihydro-2,7-naphthyridine-1,6(2H,7H)-dione] | 2.2 | 31.8 | 1.3 | 0.02
Cn1c(Nc2ccc(C3CC3)cc2F)c2c(cc1=O)CCNC2=O [Example 52, 8-((4-cyclopropyl-2-fluorophenyl)amino)-7-methyl-3,4-dihydro-2,7-naphthyridine-1,6(2H,7H)-dione] | 1.3 | 36.8 | 1.2 | 0.03
CCON1CCc2cc(=O)n(C)c(Nc3ccc(Br)cc3F)c2C1=O [Example 3, 8-((4-bromo-2-fluorophenyl)amino)-2-ethoxy-7-methyl-3,4-dihydro-2,7-naphthyridine-1,6(2H,7H)-dione] | 1 | 46.2 | 0.9 | 0.456
Cn1c(Nc2ccc(C3CC3)cc2F)c2c(cc1=O)CCN(OCCO)C2=O [Example 15, 8-((4-cyclopropyl-2-fluorophenyl)amino)-2-(2-hydroxyethoxy)-7-methyl-3,4-dihydro-2,7-naphthyridine-1,6(2H,7H)-dione] | 3.7 | 27.5 | 2.2 | 0.017
Cc1c2c(c(Nc3ccc(C4CC4)cc3F)n(C)c1=O)C(=O)NCC2 [Example 57, 8-((4-cyclopropyl-2-fluorophenyl)amino)-5,7-dimethyl-3,4-dihydro-2,7-naphthyridine-1,6(2H,7H)-dione] | 0.9 | 31.8 | 1.2 | 0.094
Cn1c(Nc2ccc(I)cc2Cl)c2c(cc1=O)CCN(OCCO)C2=O [Example 9, 8-((2-chloro-4-iodophenyl)amino)-2-(2-hydroxyethoxy)-7-methyl-3,4-dihydro-2,7-naphthyridine-1,6(2H,7H)-dione] | 7.7 | 27.1 | 3.2 | 0.003
CSc1ccc(Nc2c3c(cc(=O)n2C)CCN(OCCO)C3=O)c(Cl)c1 [Example 21, 8-((2-chloro-4-(methylthio)phenyl)amino)-2-(2-hydroxyethoxy)-7-methyl-3,4-dihydro-2,7-naphthyridine-1,6(2H,7H)-dione] | 4.2 | 28.8 | 3 | 0.01
Cn1c(Nc2ccc(OC(F)F)cc2F)c2c(cc1=O)CCNC2=O [Example 53, 8-((4-(difluoromethoxy)-2-fluorophenyl)amino)-7-methyl-3,4-dihydro-2,7-naphthyridine-1,6(2H,7H)-dione] | 1.1 | 36.9 | 1.8 | 0.03
Cn1c(Nc2ccc(SC(F)F)cc2F)c2c(cc1=O)CCN(OCCO)C2=O [Example 25, 8-((4-((difluoromethyl)thio)-2-fluorophenyl)amino)-2-(2-hydroxyethoxy)-7-methyl-3,4-dihydro-2,7-naphthyridine-1,6(2H,7H)-dione] | 5.7 | 26.4 | 14.1 | 0.003
CCc1ccc(Nc2c3c(cc(=O)n2C)CCNC3=O)c(F)c1 [Example 51, 8-((4-ethyl-2-fluorophenyl)amino)-7-methyl-3,4-dihydro-2,7-naphthyridine-1,6(2H,7H)-dione] | 1.2 | 41.2 | 1.2 | 0.026
CSc1ccc(Nc2c3c(c(C)c(=O)n2C)CCNC3=O)c(F)c1 [Example 55, 8-((2-fluoro-4-(methylthio)phenyl)amino)-5,7-dimethyl-3,4-dihydro-2,7-naphthyrdine-1,6(2H,7H)-dione] | 1.4 | 37.4 | 1.4 | 0.028
CCON1CCc2cc(=O)n(C)c(Nc3ccc(I)cc3F)c2C1=O [Example 28, 2-ethoxy-8-((2-fluoro-4-iodophenyl)amino)-7-methyl-3,4-dihydro-2,7-naphthyrdine-1,6(2H,7H)-dione] | 1.1 | 26.1 | 1.1 | 0.026
C[C@H](O)CON1CCc2cc(=O)n(C)c(Nc3ccc(Br)cc3F)c2C1=O [Example 33, (S)-8-((4-bromo-2-fluorophenyl)amino)-2-(2-hydroxypropoxy)-7-methyl-3,4-dihydro-2,7-naphthyridine-1,6(2H,7H)-dione] | 4 | 24.7 | 8.3 | 0.019
CON1CCc2cc(=O)n(C)c(Nc3ccc(I)cc3F)c2C1=O [Example 29, 8-((2-fluoro-4-iodophenyl)amino)-2-methoxy-7-methyl-3,4-dihydro-2,7-naphthyridine-1,6(2H,7H)-dione] | 1.5 | 32.8 | 1.1 | 0.017
Cn1c(Nc2ccc(Br)cc2F)c2c(c(Br)c1=O)CCN(OCCO)C2=O [Example 42, 5-bromo-8-((4-bromo-2-fluorophenyl)amino)-2-(2-hydroxyethoxy)-7-methyl-3,4-dihydro-2,7-naphthyridine-1,6(2H,7H)-dione] | 2.8 | 29.4 | 3.3 | 0.143
Cc1c2c(c(Nc3ccc(I)cc3F)n(C)c1=O)C(=O)N(OCCO)CC2 [Example 40, 8-((2-fluoro-4-iodophenyl)amino)-2-(2-hydroxyethoxy)-5,7-dimethyl-3,4-dihydro-2,7-naphthyridine-1,6(2H,7H)-dione] | 3.6 | 28.4 | 1.9 | 0.004
Cc1c2c(c(Nc3ccc(I)cc3F)n(C)c1=O)C(=O)NCC2 [Example 48, 8-((2-fluoro-4-iodophenyl)amino)-5,7-dimethyl-3,4-dihydro-2,7-naphthyridine-1,6(2H,7H)-dione] | 1.4 | 16.2 | 1 | 0.006
